From US10179816B2, “Pharmaceutical compositions comprising an antibody which binds the human anti-Müllerian hormone receptor type II” (LABORATOIRE FRANCAIS DU FRACTIONNEMENT DES BIOTECHNOLOGIES, priority 2011, dated 2019)
Where “and” joins values, the source holds several entries; their conditions need not be identical. Equal values may be shown once. Entries after “also recorded” stand apart in the source; their conditions may differ.

Tested on: Cov434-AMHRII Asc1a5 tumour cells (a cell line of human ovarian cancer)
Experiment: Anti-tumour activity of 3C23K alone or with paclitaxel in Cov434-AMHRII Asc1a5 xenograft (tumour volume, T/C ratio, statistical analysis);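 also: subcutaneous Cov434-AMHRII Asc1a5 xenografts in female Swiss nude mice, tumour volume from length×width×height/2 in mm^3, randomized D13, dosing from D14, 8 mice per group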
Conditions: for Individual tumour volume: individual mice
[1] = D13, contrast vs paclitaxel 15 mg/kg q7d4
[2] = D20, contrast vs paclitaxel 15 mg/kg q7d4
[3] = D24, contrast vs paclitaxel 15 mg/kg q7d4
[4] = D27, contrast vs paclitaxel 15 mg/kg q7d4
[5] = D31, contrast vs paclitaxel 15 mg/kg q7d4
[6] = D35, contrast vs paclitaxel 15 mg/kg q7d4
[7] = D41, contrast vs paclitaxel 15 mg/kg q7d4
[8] = Day 13, randomization, before treatment

Protocol: Female Swiss nude mice (Harlan Laboratories) were injected subcutaneously (s.c.) with 7.10^6 cells of Cov434-AMHRII Asc1a5 (cell line of human ovarian cancer transfected with cDNA AMHRII) in Matrigel (1:1 ratio) under a volume of 150 μL on day 0 (D0).
The mice were randomized on D13, when the volume of the tumours was between 58 and 150 mm^3, and the treatments began on D14 (8 mice per group).
The tumours were usually measured twice weekly. Tumour volume (TV) was calculated using the following formula, in which the length corresponds to the largest of the tumour diameters, the width corresponds to the smallest of the tumour diameters and the tumour height: TV (mm^3)=(length×width×height)/2.
In addition, for each group, curves of tumour growth were plotted using the calculated mean tumour volumes or the median tumour volumes.
The animals were sacrificed when the tumour volumes reached 2000 mm^3 or for ethical reasons. The curves of mean values and median values as well as the statistical analyses were stopped when 20% of the mice in the group were dead.
In one experiment with 8 mice per group, the curves and analyses were stopped when fewer than 7 values per group had been obtained (7 mice alive).
The statistical differences between the different groups were analysed by ANOVA comparison using the Statgraphics centurion XV software.
The ANOVA table breaks down the variance into two components: an inter-group component and an intra-group component. The ratio F is the ratio of the inter-group estimate to the intra-group estimate. When the P value of test F is greater than or equal to 0.05, there is no statistically significant difference between the mean values of the two groups, with a confidence level of 95%. P values less than 0.05 indicate a significant difference between the mean values of the two groups with a confidence level of 95%.
A Kruskal-Wallis test was also carried out. When the P value is greater than or equal to 0.05, there is no statistically significant difference between the median of the two groups, with a confidence level of 95%. P values less than 0.05 indicate a significant difference between the medians of the two groups with a confidence level of 95%.
The treatment is initiated on day 14 after injection.

Substance: 3C23K: mutated humanized 12G4 monoclonal antibody binding AMHR-II, produced by the 3C23K clone; light chain SEQ ID NO: 11, heavy chain SEQ ID NO: 13
- ANOVA F-ratio (D13, contrast vs control): 0.00
- Kruskal-Wallis Test (D13, contrast vs control): 0.00
- ANOVA F-ratio [1]: 0.11
- Kruskal-Wallis Test [1]: 0.03
- ANOVA F-ratio (D20, contrast vs control): 5.33
- Kruskal-Wallis Test (D20, contrast vs control): 4.44
- ANOVA F-ratio [2]: 9.54
- Kruskal-Wallis Test [2]: 6.39
- Statistical analysis of tumour volume (in words) (D20 to D41): significant anti-tumour activity; also recorded: significantly different from that of paclitaxel in monotherapy
- ANOVA F-ratio (D24, contrast vs control): 9.83
- Kruskal-Wallis Test (D24, contrast vs control): 4.41
- ANOVA F-ratio [3]: 8.53
- Kruskal-Wallis Test [3]: 8.70
- ANOVA F-ratio (D27, contrast vs control): 8.21
- Kruskal-Wallis Test (D27, contrast vs control): 4.87
- ANOVA F-ratio [4]: 8.92
- Kruskal-Wallis Test [4]: 8.66
- ANOVA F-ratio (D31, contrast vs control): 10.00
- Kruskal-Wallis Test (D31, contrast vs control): 4.86
- ANOVA F-ratio [5]: 8.01
- Kruskal-Wallis Test [5]: 8.66
- ANOVA F-ratio (D35, contrast vs control): 8.26
- Kruskal-Wallis Test (D35, contrast vs control): 5.11
- ANOVA F-ratio [6]: 10.47
- Kruskal-Wallis Test [6]: 8.65
- ANOVA F-ratio (D41, contrast vs control): 11.82
- Kruskal-Wallis Test (D41, contrast vs control): 5.36
- ANOVA F-ratio [7]: 12.64
- Kruskal-Wallis Test [7]: 7.71
- Mean tumour volume [8]: 92 mm^3
- Median tumour volume [8]: 89 mm^3
- Individual tumour volume (Day 13): 144 mm3 and 98 mm3 (2×) and 90 mm3 and 76 mm3 and 73 mm3
- Mean tumour volume (Day 20): 111 mm^3
- Median tumour volume (Day 20): 107 mm^3
- Individual tumour volume (Day 20): 105 mm3 and 135 mm3 and 88 mm3 and 140 mm3 and 150 mm3 and 60 mm3
- Mean tumour volume (Day 24): 97 mm^3
- Median tumour volume (Day 24): 93 mm^3
- Individual tumour volume (Day 24): 158 mm3 and 180 mm3 and 0 mm3 and 102 mm3 and 114 mm3 and 68 mm3
- Mean tumour volume (Day 27): 144 mm^3
- Median tumour volume (Day 27): 129 mm^3
- Individual tumour volume (Day 27): 252 mm3 and 289 mm3 and 0 mm3 and 192 mm3 and 168 mm3 and 72 mm3
- Mean tumour volume (Day 31): 153 mm^3
- Median tumour volume (Day 31): 162 mm^3
- Individual tumour volume (Day 31): 184 mm3 and 404 mm3 and 0 mm3 and 204 mm3 and 198 mm3 and 68 mm3
- Mean tumour volume (Day 35): 310 mm^3
- Median tumour volume (Day 35): 317 mm^3
- Individual tumour volume (Day 35): 366 mm3 and 592 mm3 and 0 mm3 and 488 mm3 and 528 mm3 and 122 mm3
- Mean tumour volume (Day 41): 429 mm^3
- Median tumour volume (Day 41): 467 mm^3
- Individual tumour volume (Day 41): 560 mm3 and 844 mm3 and 0 mm3 and 540 mm3 and 634 mm3 and 293 mm3
- Mean tumour volume (Day 45): 577 mm^3
- Median tumour volume (Day 45): 577 mm^3
- Individual tumour volume (Day 45): 918 mm3 and 1256 mm3 and 0 mm3 and 624 mm3 and 731 mm3 and 392 mm3
- Mean tumour volume (Day 48): 664 mm^3
- Median tumour volume (Day 48): 620 mm^3
- Individual tumour volume (Day 48): 912 mm3 and 1672 mm3 and 0 mm3 and 551 mm3 and 833 mm3 and 381 mm3 and 689 mm3
- Mean tumour volume (Day 51): 832 mm^3
- Median tumour volume (Day 51): 712 mm^3
- Individual tumour volume (Day 51): 1485 mm3 and 2035 mm3 and 0 mm3 and 587 mm3 and 900 mm3 and 462 mm3 and 837 mm3
- Individual tumour volume (Day 55): 2080 mm3 and 0 mm3 and 990 mm3 and 1084 mm3 and 600 mm3 and 1309 mm3
- Individual tumour volume (Day 58): 0 mm3 and 1482 mm3 and 1350 mm3 and 842 mm3 and 1665 mm3
- Individual tumour volume (Day 62): 0 mm3 and 1080 mm3 and 1440 mm3 and 640 mm3 and 2057 mm3
- Individual tumour volume (Day 66): 0 mm3 and 1695 mm3 and 1512 mm3 and 666 mm3
- Individual tumour volume (Day 69): 0 mm3 and 1788 mm3 and 1496 mm3 and 950 mm3
- Individual tumour volume (Day 73): 0 mm3 and 1820 mm3 and 1559 mm3 and 1018 mm3
- Individual tumour volume (Day 76): 0 mm3 and 2296 mm3 and 1238 mm3 and 1140 mm3
- Individual tumour volume (Day 80): 0 mm3 and 1520 mm3 and 1254 mm3
- Individual tumour volume (Day 83): 0 mm3 and 1615 mm3 and 1463 mm3
- Anti-tumour activity (in words) (paclitaxel study): significant anti-tumour activity; also recorded: anti-tumour effect greater than that of paclitaxel
- T/C ratio (relative to control group, Day 13 (before treatment)): 95%
- T/C ratio (relative to control group, Day 20): 57%
- T/C ratio (relative to control group, Day 24): 28%
- T/C ratio (relative to control group, Day 27): 25%
- T/C ratio (relative to control group, Day 31): 21%
- T/C ratio (relative to control group, Day 35): 27%
- T/C ratio (relative to control group, Day 41): 29%
- T/C ratio (relative to control, after D20 up to D41 (b191 prints D40)): less than 29%
- T/C ratio (relative to paclitaxel group, Day 13 (before treatment)): 98%
- T/C ratio (relative to paclitaxel group, Day 20): 47%
- T/C ratio (relative to paclitaxel group, Day 24): 35%
- T/C ratio (relative to paclitaxel group, Day 27): 38%
- T/C ratio (relative to paclitaxel group, Day 31): 39%
- T/C ratio (relative to paclitaxel group, Day 35): 32%
